According to US6683103B2, “Sulfonamides for treatment of endothelin-mediated disorders” (Texas Biotechnology Corporation, priority 1997, dated 2004):
Read-outs that look alike come from different tables or passages of the source.

What was measured:
human ETA receptors = target: T1, human ETA receptors (Homo sapiens, UniProt P25101); assay: Binding Test #1: inhibition of 125I-ET-1 binding to ETA receptors (TE 671 cell membranes); conditions: read-out: ETA
T1 construct: endogenous in cells; host or cells: TE 671 cells (ATCC HTB 139)
T1 sequence (P25101 21-427): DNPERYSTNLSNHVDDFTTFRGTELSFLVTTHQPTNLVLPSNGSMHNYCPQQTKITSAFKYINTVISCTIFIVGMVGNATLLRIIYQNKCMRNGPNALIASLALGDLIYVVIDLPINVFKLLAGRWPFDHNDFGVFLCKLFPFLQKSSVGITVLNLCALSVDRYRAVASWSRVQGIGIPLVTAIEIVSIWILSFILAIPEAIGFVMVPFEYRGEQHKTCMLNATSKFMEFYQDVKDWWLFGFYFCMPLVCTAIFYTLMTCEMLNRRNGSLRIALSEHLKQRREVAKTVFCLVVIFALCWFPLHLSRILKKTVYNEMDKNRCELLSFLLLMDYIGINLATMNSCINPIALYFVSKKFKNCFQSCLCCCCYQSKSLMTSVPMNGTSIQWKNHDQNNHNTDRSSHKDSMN
Text: (§1) Compounds that are potential endothelin antagonists are identified by testing their ability to compete with ^125I-labeled ET-1 for binding to human ETA receptors or ETB receptors present on isolated cell membranes. The effectiveness of the test compound as an antagonist or agonist of the biological tissue response of endothelin can also be assessed by measuring the effect on endothelin induced contraction of isolated rat thoracic aortic rings. The ability of the compounds to act as antagonists or agonists for ETB receptors can be assess by testing the ability of the compounds are to inhibit endothelin-1 induced prostacyclin release from cultured bovine aortic endothelial cells.
A. Endothelin Binding Inhibition—Binding Test #1: Inhibition of Binding to ETA Receptors
TE 671 cells (ATCC Accession No. HTB 139) express ETA receptors. These cells were grown to confluence in T-175 flasks. Cells from multiple flasks were collected by scraping, pooled and centrifuged for 10 min at 190×g. The cells were resuspended in phosphate buffered saline (PBS) containing 10 mM EDTA using a Tenbroeck homogenizer. The suspension was centrifuged at 4° C. at 57,800×g for 15 min, the pellet was resuspended in 5 ml of buffer A (5 mM HEPES buffer, pH 7.4 containing aprotinin (100 KIU/ml)) and then frozen and thawed once. 5 ml of Buffer B (5 mM HEPES Buffer, pH 7.4 containing 10 mM MnCl2 and 0.001% deoxyribonuclease Type 1) was added, the suspension mixed by inversion and then incubated at 37° C. for 30 minutes. The mixture was centrifuged at 57,800×g as described above, the pellet washed twice with buffer A and then resuspended in buffer C (30 mM HEPES buffer, pH 7.4 containing aprotinin (100 KIU/ml) to give a final protein concentration of 2 mg/ml and stored at −70° C. until use.
The membrane suspension was diluted with binding buffer (30 mM HEPES buffer, pH 7.4 containing 150 mM NaCl, 5mM MgCl2, 0.5% Bacitracin) to a concentration of 8 μg/50 μl. ^125I-endothelin-1 (3,000 cpm, […]) was added to 50 μL of either: (A) endothelin-1 (for non specific binding) to give a final concentration 80 nM); (B) binding buffer (for total binding); or (C) a test compound (final concentration 1 nM to 100 μM). The membrane suspension (50 μL), containing up to 8 μg of membrane protein, was added to each of (A), (B), or (C). Mixtures were shaken, and incubated at 4° C. for 16-18 hours, and then centrifuged at […] for 25 min at 2,500×g. Alternatively, the incubation was conducted at 24° C. […] This, must be kept in mind when comparing IC50 concentrations among compounds provided herein.
The supernatant, containing unbound radioactivity, was decanted and the pellet counted on a Genesys multiwell gamma counter. The degree of inhibition of binding (D) was calculated according to the following equation: [formula]
Each test was generally performed in triplicate.

human ETB receptor = target: T2, human ETB receptor (Homo sapiens, UniProt P24530); assay: Binding Test #2: inhibition of 125I-ET-1 binding to ETB receptors (transfected COS7 cell membranes)
T2 construct: expressed in transfected cells; host or cells: COS7 cells
T2 sequence (P24530 27-442): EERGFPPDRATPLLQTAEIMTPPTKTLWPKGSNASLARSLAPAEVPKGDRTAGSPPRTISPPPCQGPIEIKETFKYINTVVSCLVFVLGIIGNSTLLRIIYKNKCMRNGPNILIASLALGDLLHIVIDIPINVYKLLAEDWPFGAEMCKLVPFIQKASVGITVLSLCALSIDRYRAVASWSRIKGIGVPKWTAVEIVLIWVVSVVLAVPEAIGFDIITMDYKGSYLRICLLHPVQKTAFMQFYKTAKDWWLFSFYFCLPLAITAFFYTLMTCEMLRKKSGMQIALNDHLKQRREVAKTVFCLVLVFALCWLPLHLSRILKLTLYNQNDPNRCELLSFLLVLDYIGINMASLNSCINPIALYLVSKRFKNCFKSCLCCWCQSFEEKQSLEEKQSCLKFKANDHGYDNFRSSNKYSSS
Text: as §1
B. Endothelin Binding Inhibition—Binding Test #2: Inhibition of Binding to ETB Receptors
COS7 cells were transfected with DNA encoding the ETB receptor, The resulting cells, which express the human ETB receptor, were grown to confluence in T-150 flasks. Membrane was prepared as described above. The binding assay was performed as described above using the membrane preparation diluted with binding buffer to a concentration of 1 μg/50 μl.
Briefly, the COS7 cells, described above, that had been transfected with DNA encoding the ETB receptor and express the human ETB receptor on their surfaces were grown to confluence in T-1 75 flasks. Cells from multiple flasks were collected by scraping, pooled and centrifuged for 10 min at 190×g. The cells were resuspended in phosphate buffered saline (PBS) containing 10 mM EDTA using a Tenbroeck homogenizer. The suspension was centrifuged at 4° C. 57,800 X g for 15 min, the pellet was resuspended in 5 ml of buffer A (5mM HEPES buffer, pH 7.4 containing aprotinin (100 KIU/ml)) and then frozen and thawed once. Five ml of Buffer B (5 mM HEPES Buffer, pH 7.4 containing 10 mM MnCl2 and 0.001% deoxyribonuclease Type 1) was added, the suspension mixed by inversion and then incubated at 37° C. for 30 minutes. The mixture was centrifuged at 57,800×g as described above, the pellet washed twice with buffer A and then resuspended in buffer C (30 mM HEPES buffer, pH 7.4 containing aprotinin (100 KIU/ml) to give a final protein concentration of 2 mg/ml.
The binding assay was performed as described above using the membrane preparation diluted to give 1 μg/50 μl of binding buffer.

[1] = Table 2, incubation at 4° C., read-out: ETB
[2] = Table 1, incubation at 4° C., read-out: ETB

IC50 (human ETA receptors; Table 1, incubation at 4° C.) [µM]	IC50 (human ETB receptor; [2]) [µM]	other results	SMILES
		IC50 (human ETA receptors; Table 2, incubation at 4° C.): > 0.03 µM; IC50 (human ETB receptor; [1]): 3.48 µM; IC50 (human ETB receptor; read-out: IC50 for ETB receptors): ~3.48 µM	Cc1noc(NS(=O)(=O)c2cccc(-c3ccccc3)c2)c1C [N-(3,4-dimethyl-5-isoxazolyl)-3-biphenylsulfonamide]
2.5	45.5		COc1ccsc1S(=O)(=O)Nc1onc(C)c1C [N-(3,4-dimethyl-5-isoxazolyl)-3-methoxythiophene-2-sulfonamide]
		IC50 (human ETA receptors; Table 2, incubation at 4° C.): 9.9 ± 1.4 µM; IC50 (human ETA receptors; Table 2, † incubation at 24° C.): 6.3 µM; IC50 (human ETB receptor; [1]): 0.77 ± 0.32 µM; IC50 (human ETB receptor; Table 2, † incubation at 24° C., read-out: ETB): 0.15 µM	Cc1noc(NS(=O)(=O)c2ccc(-c3ccccc3)cc2)c1C [N-(3,4-dimethyl-5-isoxazolyl)-4-biphenylsufonamide]
7.22	11.1		Cc1noc(NS(=O)(=O)c2cc3ccccc3s2)c1C [N-(3,4-dimethyl-5-isoxazolyl)benzo[b]thiophene-2-sulfonamide]
5.22	38.4		Cc1noc(NS(=O)(=O)c2cc3ccccc3o2)c1C [N-(3,4-dimethyl-5-isoxazolyl)benzofuran-2-sulfonamide]
2.55	1.29		Cc1noc(NS(=O)(=O)c2ccc(-c3ccccc3)s2)c1C [N-(3,4-dimethyl-5-isoxazolyl-5-phenylthiophen-2-sulfonamide]
0.838	0.211		Cc1noc(NS(=O)(=O)c2ccn(-c3ccc(C(C)C)cc3)c2)c1Br [N-(4-Bromo-3-methyl-5-isoxazolyl) 1-(4′-isopropylphenyl)pyrrole-3-sulfonamide]
11.4	0.166		Cc1noc(NS(=O)(=O)c2cccn2-c2ccc(C(C)C)cc2)c1Br [N-(4-Bromo-3-methyl-5-isoxazolyl)-1-(4′-isopropylphenyl)pyrrole-2-sulfonamide]
18.1	8.7		Cc1noc(NS(=O)(=O)c2cccn2-c2ccccc2)c1Br [N-(4-Bromo-3-methyl-5-isoxazolyl)-1-(phenyl)pyrrole-2-sulfonamide]
~0.39	2.62		Cc1noc(NS(=O)(=O)c2cc(Cl)sc2Cl)c1Br [N-(4-Bromo-3-methyl-5-isoxazolyl)-2,5-dichlorothiophene-3-sulfonamide]
0.0956	7.8		Cc1cc(S(=O)(=O)Nc2onc(C)c2Br)c(C)s1 [N-(4-Bromo-3-methyl-5-isoxazolyl)-2,5-dimethylthiophene-3-sulfonamide]
0.013	12.7		Cc1noc(NS(=O)(=O)c2ccsc2C(=O)NCc2ccccc2)c1Br [N-(4-Bromo-3-methyl-5-isoxazolyl)-2-(N-benzylaminocarbonyl)thiophene-3-sulfonamide]
~0.6	~67		Cc1noc(NS(=O)(=O)c2ccsc2C(=O)O)c1Br [N-(4-Bromo-3-methyl-5-isoxazolyl)-2-(carboxyl)thiophene-3-sulfonamide]
0.0116	13.2		COc1ccccc1NC(=O)c1sccc1S(=O)(=O)Nc1onc(C)c1Br [N-(4-Bromo-3-methyl-5-isoxazolyl)-2-[N-(2-methoxyphenyl)aminocarbonyl]thiophene-3-sulfonamide]
0.003	5.86		COc1cccc(NC(=O)c2sccc2S(=O)(=O)Nc2onc(C)c2Br)c1 [N-(4-Bromo-3-methyl-5-isoxazolyl)-2-[N-(3-methoxyphenyl)aminocarbonyl]thiophene-3-sulfonamide]
0.0376	0.912		Cc1noc(NS(=O)(=O)c2ccsc2C(=O)Nc2ccc(-c3ccccc3)cc2)c1Br [N-(4-Bromo-3-methyl-5-isoxazolyl)-2-[N-(4-biphenyl)aminocarbonyl]thiophene-3-sulfonamide]
0.0016	0.849		CCc1ccc(NC(=O)c2sccc2S(=O)(=O)Nc2onc(C)c2Br)cc1 [N-(4-Bromo-3-methyl-5-isoxazolyl)-2-[N-(4-ethylphenyl)aminocarbonyl]thiophene-3-sulfonamide]
0.002	2.12		COc1ccc(NC(=O)c2sccc2S(=O)(=O)Nc2onc(C)c2Br)cc1 [N-(4-Bromo-3-methyl-5-isoxazolyl)-2-[N-(4-methoxyphenyl)aminocarbonyl]thiophene-3-sulfonamide]
0.281	2.58		Cc1noc(NS(=O)(=O)c2cc(Br)c(Br)s2)c1Br [N-(4-Bromo-3-methyl-5-isoxazolyl)-4,5-dibromothiophene-2-sulfonamide]
~0.45	~4.9		Cc1noc(NS(=O)(=O)c2cc(Cl)c(Cl)s2)c1Br [N-(4-Bromo-3-methyl-5-isoxazolyl)-4,5-dichlorothiophene-2-sulfonamide]
~0.28	10.4		Cc1noc(NS(=O)(=O)c2c(Cl)sc(Cl)c2Br)c1Br [N-(4-Bromo-3-methyl-5-isoxazolyl)-4-bromo-2,5-dichlorothiophene-3-sulfonamide]
3.84	2.7		Cc1noc(NS(=O)(=O)c2ccc(-c3ccccn3)s2)c1Br [N-(4-Bromo-3-methyl-5-isoxazolyl)-5-(2-pyridyl)thiophene-2-sulfonamide]
0.311	2.57		Cc1noc(NS(=O)(=O)c2ccc(CNC(=O)c3ccc(Cl)cc3)s2)c1Br [N-(4-Bromo-3-methyl-5-isoxazolyl)-5-(4-chlorobenzamidomethyl)thiophene-2-sulfonamide]
0.57	0.333		Cc1noc(NS(=O)(=O)c2ccc(S(=O)(=O)c3ccccc3)s2)c1Br [N-(4-Bromo-3-methyl-5-isoxazolyl)-5-benzenesulfonylthiophene-2-sulfonamide]
